Measured values published in patent US12696899B2, “Microbiocidal 2-acylamino-thiazole-4-carboxamide derivatives” (SYNGENTA CROP PROTECTION AG, priority 2018, dated 2026).
Where two headings read alike, the source gives them in different places.

Tests used:
[1] = Photostability, thin-film irradiation in Atlas Suntest xenon lamp; format: physicochemical; settings: thin film on glass, Suntest 750 W/m2; time for first 50% loss
Protocol: Photostability tests were carried out by irradiation of thin-film deposits of compounds and formulations on glass surfaces, using a filtered xenon lamp system (Atlas Suntest) which reproduces the spectrum and intensity of sunlight. The spectral output power of the Suntest was set to 750 W/m2, which is the typical daily maximum irradiance level at noon (UK, midsummer).
Test compounds were typically dissolved in HPLC grade methanol to give 1 g/L stock solutions. Alternatively, formulated compounds were suspended in water at the same concentration. 2 μL droplets of test solutions were spotted onto microscope cover slips in a 3D printed holder, allowed to dry then irradiated in the Suntest for varying times. Cover slips were then removed from the Suntest and placed in 4 dram vials; 1 mL of wash solvent (typically 30:70 acetonitrile: 0.2% aqueous formic acid) was added, and the vials shaken to extract compounds into solution. Solutions were analysed by reverse phase HPLC, typically using a Waters UPLC system with Photodiode Array (PDA) and Waters columns (BEH C18, 100×2.1 mm×1.7 μm) using mixed aqueous:acetonitrile mobile phase, acidifed with 0.2% formic acid. Peak detection was at the optimum wavelength for each candidate compound and PDA peak areas were used for quantification. Plots of % loss versus time were used to estimate T50 values, being the time taken for first 50% loss of test compound.

[2] = pH 7.2
physchem = settings: pH 7
[3] = Solubility in aqueous buffer (10 mM mixed phosphate, pH 7.20)
[4] = Octanol-water partition coefficient (Log P) by HPLC on octanol-coated mini-columns; settings: pH 7
Fusarium culmorum = format: in vivo; settings: 200 ppm; wheat spikelet preventative; compared to untreated control
[5] = tested on: Gibberella zeae (Fusarium graminearum); format: in vivo; settings: 200 ppm; wheat spikelet preventative; compared to untreated control
[6] = tested on: Magnaporthe grisea (Pyricularia oryzae); assay: whole plant or invertebrate; format: in vivo; settings: foliar, read-out: control of Magnaporthe grisea
Pyrenophora teres = assay: Example B15 Pyrenophora teres/barley/leaf disc preventative (net blotch); format: in vivo; settings: foliar, barley leaf disc preventative, compared to untreated control

SMILES	Photostability T50 [1] [h]	Solubility in water [2] [ppm]	chromatographic logP (physchem)	further results
Cc1sc(Nc2cc(F)nc(F)c2)nc1C(=O)NC1CCC1(C)C (stereo not shown) [Compound E-0, 2-[(2,6-difluoro-4-pyridyl)amino]-N-(2,2-dimethylcyclobutyl)-5-methyl-thiazole-4-carboxamide, reference compound]	3.5	0.70	–	–
Cc1sc(N(C=O)c2cc(F)nc(F)c2)nc1C(=O)NC1CCC1(C)C (stereo not shown) [I.b.595, 2-[(2,6-difluoro-4-pyridyl)-formyl-amino]-N-(2,2-dimethylcyclobutyl)-5-methyl-thiazole-4-carboxamide]	2.8	2.5	3.61	–
CC(=O)N(c1cc(F)nc(F)c1)c1nc(C(=O)NC2CCC2(C)C)c(C)s1 (stereo not shown) [I.b.596, 2-[acetyl-(2,6-difluoro-4-pyridyl)amino]-N-(2,2-dimethylcyclobutyl)-5-methyl-thiazole-4-carboxamide]	5.5	3.7	3.8	–
COC(=O)N(c1cc(F)nc(F)c1)c1nc(C(=O)NC2CCC2(C)C)c(C)s1 (stereo not shown) [I.b.598, methyl N-(2,6-difluoro-4-pyridyl)-N-[4-[(2,2-dimethylcyclobutyl)carbamoyl]-5-methyl-thiazol-2-yl]carbamate]	6.2	–	–	Solubility in heptane (Solubility in heptane): 1155 ppm; Solubility in water [3]: 1.4 ppm; chromatographic logP [4]: 4.21
CCOC(=O)N(c1cc(F)nc(F)c1)c1nc(C(=O)NC2CCC2(C)C)c(C)s1 (stereo not shown) [I.b.599, ethyl N-(2,6-difluoro-4-pyridyl)-N-[4-[(2,2-dimethylcyclobutyl)carbamoyl]-5-methyl-thiazol-2-yl]carbamate]	11	1.0	4.58	–
COCC(=O)N(c1cc(F)nc(F)c1)c1nc(C(=O)NC2CCC2(C)C)c(C)s1 (stereo not shown) [I.b.600, 2-[(2,6-difluoro-4-pyridyl)-(2-methoxyacetyl)amino]-N-(2,2-dimethylcyclobutyl)-5-methyl-thiazole-4-carboxamide]	2.8	18	3.35	control of Fusarium culmorum (Fusarium culmorum): at least 80%
COC(=O)CC(=O)N(c1cc(F)nc(F)c1)c1nc(C(=O)NC2CCC2(C)C)c(C)s1 (stereo not shown) [I.b.607, methyl 3-[(2,6-difluoro-4-pyridyl)-[4-[(2,2-dimethylcyclobutyl)carbamoyl]-5-methyl-thiazol-2-yl]amino]-3-oxo-propanoate]	4.4	12	3.59	control of Gibberella zeae [5]: at least 80%
CCOC(=O)C(=O)N(c1cc(F)nc(F)c1)c1nc(C(=O)NC2CCC2(C)C)c(C)s1 (stereo not shown) [I.b.612, ethyl 2-[(2,6-difluoro-4-pyridyl)-[4-[(2,2-dimethylcyclobutyl)carbamoyl]-5-methyl-thiazol-2-yl]amino]-2-oxo-acetate]	5.5	–	4.34	–
Cc1sc(N(C(=O)c2ccco2)c2cc(F)nc(F)c2)nc1C(=O)NC1CCC1(C)C (stereo not shown) [I.b.614, 2-[(2,6-difluoro-4-pyridyl)-(furan-2-carbonyl)amino]-N-(2,2-dimethylcyclobutyl)-5-methyl-thiazole-4-carboxamide]	14	0.054	4.61	–
Cc1sc(N(C(=O)Oc2ccccc2)c2cc(F)nc(F)c2)nc1C(=O)NC1CCC1(C)C (stereo not shown) [I.b.616, phenyl N-(2,6-difluoro-4-pyridyl)-N-[4-[(2,2-dimethylcyclobutyl)carbamoyl]-5-methyl-thiazol-2-yl]carbamate]	18	–	–	Solubility in heptane (Solubility in heptane): 673 ppm; Solubility in water [3]: 0.10 ppm; chromatographic logP [4]: 5.34
COCC(=O)N(c1cc(F)nc(F)c1)c1nc(C(=O)NC2CCC23CCCC3)c(C)s1 (stereo not shown) [I.c.600, 2-[(2,6-difluoro-4-pyridyl)-(2-methoxyacetyl)amino]-5-methyl-N-spiro[3.4]octan-3-yl-thiazole-4-carboxamide]	–	–	–	pest or weed control at 200 ppm [6]: ≥ 80%; pest or weed control at 200 ppm (Pyrenophora teres): ≥ 80%
